Assay type in all cases: functional
Assay [1] has as its system Onchocerca lienalis. Nature of the assay: MMV: Percent motility assay at a compound concentration of 1.25e-5 M. Activity score legend: 3: Active, 2: Moderately active; 1: Inactive, 0: Toxic. The settings on record: at 12.5 µM.
The subject of assay [2] is Onchocerca lienalis. As to the kind of experiment: MMV: Percent motility assay at a compound concentration of 3.1e-6 M. Activity score legend: 3: Active, 2: Moderately active; 1: Inactive, 0: Toxic. To be noted: at 3.1 µM.
For assay [3], the system named is Onchocerca lienalis. As to the kind of experiment: MMV: Percent motility assay at a compound concentration of 1.9e-7 M. Activity score legend: 3: Active, 2: Moderately active; 1: Inactive, 0: Toxic. To be noted: at 0.19 µM.
In assay [4] the test system is Onchocerca lienalis. Nature of the assay: MMV: Percent motility assay at a compound concentration of 7.8e-7 M. Activity score legend: 3: Active, 2: Moderately active; 1: Inactive, 0: Toxic. The settings on record: at 0.78 µM.

In the case of `Cc1cccc(-n2ncc3c(O)nc(-n4nc(C)cc4NC(=O)c4cc5ccccc5o4)nc32)c1`, the Motility is reported as 0% in the assay with Onchocerca lienalis [1], 100% in the assay with Onchocerca lienalis [2], 100% in the assay with Onchocerca lienalis [3] and 100% in the assay with Onchocerca lienalis [4].

Consider `Oc1ccccc1CN1CCC2(CCCN(Cc3ccccc3F)C2)C1` (centres undefined), for which the Motility with Onchocerca lienalis [1], in the assay on Onchocerca lienalis [2], with Onchocerca lienalis [3] and with Onchocerca lienalis [4] was 100% each time.

On to `COc1cccc(Nc2nc(NCCO)c3ccccc3n2)c1.Cl`, for which the Motility in the assay with Onchocerca lienalis [1], in the assay with Onchocerca lienalis [2], in the assay with Onchocerca lienalis [3] and with Onchocerca lienalis [4] was 100% throughout.

`Cc1ccc(-c2cc(C(=O)Nc3ccc(S(=O)(=O)N4CCCCC4)cc3)[nH]n2)c(O)c1`: the Motility in the assay on Onchocerca lienalis [1], in the assay on Onchocerca lienalis [2], with Onchocerca lienalis [3] and in the assay on Onchocerca lienalis [4] was 100% throughout.

For `COc1ccc(N2CCN(C(CNC(=O)C3CCCCC3)c3ccc4c(c3)OCO4)CC2)cc1` (centres undefined), the Motility with Onchocerca lienalis [1], in the assay with Onchocerca lienalis [2], in the assay with Onchocerca lienalis [3] and in the assay on Onchocerca lienalis [4] was 100% throughout.

Turning to `Cn1c(=O)c2cc(C(=O)NCCCN3CCCCCC3)sc2c2ccccc21`, the Motility in the assay on Onchocerca lienalis [1], in the assay on Onchocerca lienalis [2], in the assay on Onchocerca lienalis [3] and in the assay with Onchocerca lienalis [4] was 100% in each case.

Turning to `Cc1[nH]c(-c2ccc(F)cc2)cc1C(=O)NC1CCN(Cc2ccccc2)CC1`, the Motility in the assay with Onchocerca lienalis [1], in the assay with Onchocerca lienalis [2], in the assay on Onchocerca lienalis [3] and with Onchocerca lienalis [4] was 100% each time.

As to `COc1ccc(CCN2CCC(CN(C)Cc3cnn(-c4ccccc4)c3)CC2)cc1`, the Motility in the assay with Onchocerca lienalis [1], in the assay with Onchocerca lienalis [2], with Onchocerca lienalis [3] and with Onchocerca lienalis [4] was 100% in each case.

Take `O=C(NC(c1ccccc1)c1ccc2cccnc2c1O)c1ccccc1` (centres undefined): the Motility was found to be 26.66% in the assay with Onchocerca lienalis [1], 33.33% with Onchocerca lienalis [2], 100% in the assay with Onchocerca lienalis [3] and 100% with Onchocerca lienalis [4].

Regarding `O=C(NC1CCCC1)c1ccc(N2CCC(NCc3cccc(C(F)(F)F)c3)CC2)cc1`, the Motility in the assay on Onchocerca lienalis [1], in the assay with Onchocerca lienalis [2], in the assay on Onchocerca lienalis [3] and in the assay on Onchocerca lienalis [4] was 100% each time.

In the case of `CCOc1cc(Br)c(C(C)NC(=O)c2cccc(OC)c2)cc1OCC` (centres undefined), the Motility with Onchocerca lienalis [1], in the assay on Onchocerca lienalis [2], with Onchocerca lienalis [3] and in the assay with Onchocerca lienalis [4] was 100% throughout.

Consider `CCN(CC)CCn1c(=N)n(CC(O)c2ccc(Cl)c(Cl)c2)c2ccccc21.Cl` (centres undefined), for which the Motility with Onchocerca lienalis [1], in the assay on Onchocerca lienalis [2], in the assay with Onchocerca lienalis [3] and in the assay on Onchocerca lienalis [4] was 100% in each case.

As to `CCOc1cc(Cl)c(C(C)NC(=O)c2cccc(OC)c2)cc1OCC` (centres undefined), the Motility in the assay on Onchocerca lienalis [1], in the assay with Onchocerca lienalis [2], in the assay on Onchocerca lienalis [3] and with Onchocerca lienalis [4] was 100% throughout.

For `Cc1ccc(Cl)cc1N1CCN(CCCNC(=O)C2CCN(c3nc4ccccc4[nH]3)CC2)CC1`, the Motility in the assay on Onchocerca lienalis [1], in the assay with Onchocerca lienalis [2], in the assay on Onchocerca lienalis [3] and in the assay on Onchocerca lienalis [4] was 100% each time.

In the case of `Cc1ccc(CSCc2ccc(C(=O)NC3CC3)o2)cc1`, the Motility with Onchocerca lienalis [1], in the assay with Onchocerca lienalis [2], in the assay on Onchocerca lienalis [3] and in the assay with Onchocerca lienalis [4] was 100% throughout.

Turning to `CC(NCc1ccccc1)c1cc(Cl)ccc1O` (centres undefined), the Motility with Onchocerca lienalis [1], in the assay on Onchocerca lienalis [2], with Onchocerca lienalis [3] and in the assay with Onchocerca lienalis [4] was 100% throughout.

As to `CN1CCN(c2c3c(c(C#N)c4nc5ccccc5n24)CCC3)CC1`, the Motility in the assay on Onchocerca lienalis [1], in the assay with Onchocerca lienalis [2], in the assay with Onchocerca lienalis [3] and with Onchocerca lienalis [4] was 100% in each case.

Regarding `O=C(Nc1ccc(CN2CCOCC2)cc1)c1ccc(-c2ccc(Br)cc2)o1`, the Motility in the assay with Onchocerca lienalis [1], in the assay with Onchocerca lienalis [2], with Onchocerca lienalis [3] and with Onchocerca lienalis [4] was 100% throughout.

As for `CC(=O)NCCc1nc2ccccc2n1Cc1ccc(C(C)C)cc1`, the Motility in the assay with Onchocerca lienalis [1], in the assay on Onchocerca lienalis [2], in the assay with Onchocerca lienalis [3] and in the assay on Onchocerca lienalis [4] was 100% throughout.

For the compound `CCN(CC)CCNc1ncnc2c1[nH]c1ccc(Br)cc12`, the Motility in the assay on Onchocerca lienalis [1], with Onchocerca lienalis [2], in the assay with Onchocerca lienalis [3] and in the assay with Onchocerca lienalis [4] was 100% each time.

`CCCC(c1nnnn1C1CCCCC1)N1CCN(C(=O)c2ccco2)CC1.Cl` (centres undefined): the Motility in the assay on Onchocerca lienalis [1], in the assay with Onchocerca lienalis [2], with Onchocerca lienalis [3] and in the assay with Onchocerca lienalis [4] was 100% in each case.

In the case of `CC(C)(C)C(=O)Nc1ccc(C(=O)Nc2cccc(-c3nc4ccccc4[nH]3)c2)cc1`, the Motility in the assay with Onchocerca lienalis [1], in the assay with Onchocerca lienalis [2], with Onchocerca lienalis [3] and in the assay with Onchocerca lienalis [4] was 100% each time.

`COc1ccc(-c2nonc2NC(=O)c2cccc(C)c2)cc1OC`: the Motility with Onchocerca lienalis [1], with Onchocerca lienalis [2], in the assay with Onchocerca lienalis [3] and in the assay on Onchocerca lienalis [4] was 100% in each case.

In the case of `COc1cccc(-c2nn(C)c3sc(C(=O)NCCN4CCN(c5ccccc5F)CC4)cc23)c1`, the Motility with Onchocerca lienalis [1], in the assay on Onchocerca lienalis [2], in the assay with Onchocerca lienalis [3] and in the assay on Onchocerca lienalis [4] was 100% each time.

Consider `O=C(Nc1ccc(N2CCN(Cc3ccccc3)CC2)cc1)c1cccs1.O=C(O)C(F)(F)F`, for which the Motility in the assay with Onchocerca lienalis [1], in the assay on Onchocerca lienalis [2], in the assay with Onchocerca lienalis [3] and in the assay with Onchocerca lienalis [4] was 100% each time.

As for `Cc1ccc(CN2CCC(C(=O)Nc3ccc(-c4cc5ccccc5[nH]4)cc3)CC2)o1`, the Motility in the assay with Onchocerca lienalis [1], with Onchocerca lienalis [2], in the assay with Onchocerca lienalis [3] and with Onchocerca lienalis [4] was 100% each time.

On to `O=C(Nc1ccc(N2CCCCC2)c(Cl)c1)c1ccc(Br)o1`, for which the Motility in the assay on Onchocerca lienalis [1], in the assay with Onchocerca lienalis [2], in the assay on Onchocerca lienalis [3] and in the assay on Onchocerca lienalis [4] was 100% throughout.

For `Cc1cc(C)c2nc(N3CCC(C(=O)NCCCN4CCC(N5CCCCC5)CC4)CC3)sc2c1`, the Motility in the assay on Onchocerca lienalis [1], with Onchocerca lienalis [2], in the assay on Onchocerca lienalis [3] and in the assay with Onchocerca lienalis [4] was 100% each time.

In the case of `CC(C)(C)c1ccc(C(=O)Nc2nc3ccccc3s2)cc1`, the Motility in the assay on Onchocerca lienalis [1], with Onchocerca lienalis [2], in the assay with Onchocerca lienalis [3] and with Onchocerca lienalis [4] was 100% throughout.

As to `COc1ccccc1CNC(=O)C1c2ccccc2C(=O)N(CC(C)C)C1c1cccs1` (centres undefined), the Motility in the assay on Onchocerca lienalis [1], with Onchocerca lienalis [2], in the assay on Onchocerca lienalis [3] and in the assay with Onchocerca lienalis [4] was 100% each time.

`COc1ccc(C2N(C)c3ccccc3N2C)cc1`: the Motility in the assay on Onchocerca lienalis [1], with Onchocerca lienalis [2], in the assay on Onchocerca lienalis [3] and in the assay with Onchocerca lienalis [4] was 100% each time.

On to `CCN(CC)c1cc(C)c2cc(NC(=O)c3cccc(OC)c3)ccc2n1`, for which the Motility in the assay on Onchocerca lienalis [1], in the assay with Onchocerca lienalis [2], in the assay on Onchocerca lienalis [3] and in the assay on Onchocerca lienalis [4] was 100% throughout.

For the compound `CC(C)OCc1cc(CN2CCN(c3cccc(Cl)c3)CC2)c(O)c2ncccc12`, the Motility in the assay on Onchocerca lienalis [1] is recorded as 0%; with Onchocerca lienalis [2], 100%; in the assay with Onchocerca lienalis [3], 100%; in the assay on Onchocerca lienalis [4] it was 100%.

For `O=C(Nc1ccc(F)c(Cl)c1)Nc1ccc(Cl)c(Cl)c1`, the Motility worked out at 0% in the assay with Onchocerca lienalis [1], 100% with Onchocerca lienalis [2], 100% with Onchocerca lienalis [3] and 100% in the assay on Onchocerca lienalis [4].

With `CCOc1ccc(-c2nc(NC(=O)c3cccc(S(C)(=O)=O)c3)sc2C)cc1`, the Motility in the assay on Onchocerca lienalis [1], with Onchocerca lienalis [2], in the assay on Onchocerca lienalis [3] and in the assay on Onchocerca lienalis [4] was 100% each time.

In the case of `CCCc1c(C)nc2ccccc2c1O`, the Motility in the assay with Onchocerca lienalis [1], in the assay with Onchocerca lienalis [2], in the assay on Onchocerca lienalis [3] and in the assay with Onchocerca lienalis [4] was 100% each time.

Take `CCOc1c(Cl)cc(CNC(C)C(O)c2ccccc2)cc1OC` (centres undefined): the Motility in the assay on Onchocerca lienalis [1], in the assay with Onchocerca lienalis [2], in the assay on Onchocerca lienalis [3] and in the assay on Onchocerca lienalis [4] was 100% in each case.

As to `CCCN(CCC)CCCNC(=O)c1cc2c(-c3ccc(OC)c(OC)c3)nn(C)c2s1`, the Motility in the assay with Onchocerca lienalis [1], with Onchocerca lienalis [2], in the assay on Onchocerca lienalis [3] and in the assay with Onchocerca lienalis [4] was 100% throughout.

On to `CN1c2ccccc2N(C)C1c1ccc2c(c1)OCO2`, for which the Motility in the assay with Onchocerca lienalis [1], with Onchocerca lienalis [2], in the assay with Onchocerca lienalis [3] and in the assay with Onchocerca lienalis [4] was 100% each time.

For `O=C(NCC1Cc2cccc(-c3ccncc3)c2O1)c1csc2c1CCCC2` (centres undefined), the Motility in the assay with Onchocerca lienalis [1], in the assay with Onchocerca lienalis [2], in the assay on Onchocerca lienalis [3] and with Onchocerca lienalis [4] was 100% each time.

Take `C=CCc1c(C)nc2ccccc2c1O`: the Motility in the assay with Onchocerca lienalis [1], with Onchocerca lienalis [2], with Onchocerca lienalis [3] and in the assay on Onchocerca lienalis [4] was 100% each time.

(Values after ChEMBL document CHEMBL3137381, “MMV Box Onchocerca lienalis screening set”.)
